Values of other authors as cited in patent US7494668B2, “Fast water-dispersible domperidone tablets” (Laboratorio Medinfar-Produtos Farmaceuticos, S.A., priority 2004, dated 2009).

Compound	solubility in water
O=c1[nH]c2ccccc2n1CCCN1CCC(n2c(=O)[nH]c3cc(Cl)ccc32)CC1 [Domperidone, 5-chloro-1-[1-[3-(2-oxo-2,3-dihydro-1H-benzimidazol-1-yl)propyl]piperidine-4-yl]-1,3-dihydro-2H-benzimidazol-2-one]	practically insoluble in water
maleate	soluble in water
